Assay results as given in PubChem BioAssay (NCI).
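All cell lines were grown in 96-well plates and treated with compound for 48 hours. TGI denotes the concentration required for complete inhibition of growth.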

Tests used:
Assay in all cases: NCI tumour cell line growth inhibition, 48 h
786-0 renal = system: 786-0 renal
A498 renal = system: A498 renal
A549 NSCLC = system: A549 NSCLC
ACHN renal = system: ACHN renal
BT-549 breast = system: BT-549 breast
CAKI-1 renal = system: CAKI-1 renal
CCRF-CEM leukemia = system: CCRF-CEM leukemia
COLO 205 colon = system: COLO 205 colon
DU-145 prostate = system: DU-145 prostate
HCC-2998 colon = system: HCC-2998 colon
HCT-116 colon = system: HCT-116 colon
HCT-15 colon = system: HCT-15 colon
HL-60(TB) leukemia = system: HL-60(TB) leukemia
HOP-62 NSCLC = system: HOP-62 NSCLC
HOP-92 NSCLC = system: HOP-92 NSCLC
HS 578T breast = system: HS 578T breast
HT29 colon = system: HT29 colon
IGROV1 ovarian = system: IGROV1 ovarian
K-562 leukemia = system: K-562 leukemia
KM12 colon = system: KM12 colon
LOX IMVI melanoma = system: LOX IMVI melanoma
M14 melanoma = system: M14 melanoma
MALME-3M melanoma = system: MALME-3M melanoma
MCF7 breast = system: MCF7 breast
MDA-MB-231 breast = system: MDA-MB-231 breast
MDA-MB-435 = system: MDA-MB-435
MDA-N = system: MDA-N
NCI-H226 lung = system: NCI-H226 lung
NCI-H23 lung = system: NCI-H23 lung
NCI-H460 lung = system: NCI-H460 lung
NCI-H522 lung = system: NCI-H522 lung
NCI/ADR-RES ovarian = system: NCI/ADR-RES ovarian
OVCAR-3 ovarian = system: OVCAR-3 ovarian
OVCAR-4 ovarian = system: OVCAR-4 ovarian
OVCAR-5 ovarian = system: OVCAR-5 ovarian
OVCAR-8 ovarian = system: OVCAR-8 ovarian
PC-3 prostate = system: PC-3 prostate
RPMI-8226 leukemia = system: RPMI-8226 leukemia
RXF 393 renal = system: RXF 393 renal
SF-268 CNS = system: SF-268 CNS
SF-295 CNS = system: SF-295 CNS
SF-539 CNS = system: SF-539 CNS
SK-MEL-2 melanoma = system: SK-MEL-2 melanoma
SK-MEL-28 melanoma = system: SK-MEL-28 melanoma
SK-MEL-5 melanoma = system: SK-MEL-5 melanoma
SK-OV-3 ovarian = system: SK-OV-3 ovarian
SN12C renal = system: SN12C renal
SNB-19 CNS = system: SNB-19 CNS
SNB-75 CNS = system: SNB-75 CNS
SW-620 colon = system: SW-620 colon
TK-10 renal = system: TK-10 renal
U251 CNS = system: U251 CNS
UACC-257 melanoma = system: UACC-257 melanoma
UACC-62 melanoma = system: UACC-62 melanoma
UO-31 renal = system: UO-31 renal
EKVX NSCLC = system: EKVX NSCLC
MOLT-4 leukemia = system: MOLT-4 leukemia
SR leukemia = system: SR leukemia

Measured: TGI

CNC(=O)c1ccc(C(=O)NCCCCCN(O)C(=O)CCC(=O)NCCCCCN(O)C(=O)CCC(=O)NCCCCCN(O)C(C)=O)c(O)c1O
> 100 µM: 786-0 renal | A498 renal | A549 NSCLC | ACHN renal | BT-549 breast | CAKI-1 renal | COLO 205 colon | DU-145 prostate | HCC-2998 colon | HCT-116 colon | HCT-15 colon | HL-60(TB) leukemia | HOP-62 NSCLC | HOP-92 NSCLC | HS 578T breast | HT29 colon | IGROV1 ovarian | K-562 leukemia | KM12 colon | LOX IMVI melanoma | M14 melanoma | MALME-3M melanoma | MCF7 breast | MDA-MB-231 breast | MDA-MB-435 | MDA-N | NCI-H226 lung | NCI-H23 lung | NCI-H460 lung | NCI-H522 lung | NCI/ADR-RES ovarian | OVCAR-3 ovarian | OVCAR-4 ovarian | OVCAR-5 ovarian | OVCAR-8 ovarian | PC-3 prostate | RPMI-8226 leukemia | RXF 393 renal | SF-268 CNS | SF-295 CNS | SF-539 CNS | SK-MEL-2 melanoma | SK-MEL-28 melanoma | SK-MEL-5 melanoma | SK-OV-3 ovarian | SN12C renal | SNB-19 CNS | SNB-75 CNS | SW-620 colon | TK-10 renal | U251 CNS | UACC-257 melanoma | UACC-62 melanoma | UO-31 renal
31 µM: CCRF-CEM leukemia

Cc1cc(O)c(C=NC(=S)c2ccncc2)c(=O)o1
> 100 µM: 786-0 renal | A498 renal | A549 NSCLC | ACHN renal | BT-549 breast | CAKI-1 renal | CCRF-CEM leukemia | COLO 205 colon | DU-145 prostate | EKVX NSCLC | HCC-2998 colon | HCT-116 colon | HCT-15 colon | HL-60(TB) leukemia | HOP-62 NSCLC | HOP-92 NSCLC | HS 578T breast | HT29 colon | IGROV1 ovarian | KM12 colon | LOX IMVI melanoma | M14 melanoma | MALME-3M melanoma | MCF7 breast | MDA-MB-231 breast | MDA-MB-435 | MDA-N | MOLT-4 leukemia | NCI-H226 lung | NCI-H23 lung | NCI-H460 lung | NCI-H522 lung | NCI/ADR-RES ovarian | OVCAR-3 ovarian | OVCAR-4 ovarian | OVCAR-5 ovarian | OVCAR-8 ovarian | PC-3 prostate | RXF 393 renal | SF-268 CNS | SF-295 CNS | SF-539 CNS | SK-MEL-2 melanoma | SK-MEL-28 melanoma | SK-MEL-5 melanoma | SK-OV-3 ovarian | SN12C renal | SNB-19 CNS | SNB-75 CNS | SR leukemia | SW-620 colon | TK-10 renal | U251 CNS | UACC-257 melanoma | UACC-62 melanoma | UO-31 renal
